Results as given in BindingDB's records for doi:10.1016/j.bioorg.2014.07.011 (Shenyang Pharmaceutical University, 2014).
Each block holds one compound with its values, some of them ahead of it.

Columns and labels:
Assay in all cases: HTRF kinase assay
Settings in all cases: pH 7; 25 °C
[1] = target: Hepatocyte growth factor receptor (Homo sapiens, UniProt P08581)
Protocol: The c-Met kinase activity was evaluated by homogeneous time-resolved fluorescence (HTRF) assays. In a 384-well plate, 20 µg/mL (Glue, Tyr) 4:1 was added, followed by the addition of 50 µL of 10 mM ATP solution diluted in kinase reaction buffer (50 mM HEPES, pH 7.0, […], and 0.1% NaN3) into each well. Various concentrations of compounds diluted in 10 µL of 1% DMSO (v/v) […]. The reaction was initiated by the addition of purified c-Met kinase diluated in 39 µL of kinase reaction buffer solution. The reaction was incubated for 30 min at 25 °C and stopped by the addition of 5 µL of Streptavidin-XL665 and 5 µL Tk Antibody Cryptate working solution to all of the wells.

[2] = target: Macrophage-stimulating protein receptor (Homo sapiens, UniProt Q04912)
Chain of Macrophage-stimulating protein receptor (Q04912 25-304 limits assumed): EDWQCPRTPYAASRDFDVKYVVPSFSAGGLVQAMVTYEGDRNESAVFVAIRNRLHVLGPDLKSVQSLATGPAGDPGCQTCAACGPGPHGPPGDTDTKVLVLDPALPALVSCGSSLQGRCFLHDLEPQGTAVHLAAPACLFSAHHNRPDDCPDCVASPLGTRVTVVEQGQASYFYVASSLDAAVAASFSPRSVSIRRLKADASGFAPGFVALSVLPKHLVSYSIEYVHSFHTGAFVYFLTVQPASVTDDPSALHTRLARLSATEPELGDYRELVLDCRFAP
Chain of Macrophage-stimulating protein receptor (Q04912 310-1400 limits assumed): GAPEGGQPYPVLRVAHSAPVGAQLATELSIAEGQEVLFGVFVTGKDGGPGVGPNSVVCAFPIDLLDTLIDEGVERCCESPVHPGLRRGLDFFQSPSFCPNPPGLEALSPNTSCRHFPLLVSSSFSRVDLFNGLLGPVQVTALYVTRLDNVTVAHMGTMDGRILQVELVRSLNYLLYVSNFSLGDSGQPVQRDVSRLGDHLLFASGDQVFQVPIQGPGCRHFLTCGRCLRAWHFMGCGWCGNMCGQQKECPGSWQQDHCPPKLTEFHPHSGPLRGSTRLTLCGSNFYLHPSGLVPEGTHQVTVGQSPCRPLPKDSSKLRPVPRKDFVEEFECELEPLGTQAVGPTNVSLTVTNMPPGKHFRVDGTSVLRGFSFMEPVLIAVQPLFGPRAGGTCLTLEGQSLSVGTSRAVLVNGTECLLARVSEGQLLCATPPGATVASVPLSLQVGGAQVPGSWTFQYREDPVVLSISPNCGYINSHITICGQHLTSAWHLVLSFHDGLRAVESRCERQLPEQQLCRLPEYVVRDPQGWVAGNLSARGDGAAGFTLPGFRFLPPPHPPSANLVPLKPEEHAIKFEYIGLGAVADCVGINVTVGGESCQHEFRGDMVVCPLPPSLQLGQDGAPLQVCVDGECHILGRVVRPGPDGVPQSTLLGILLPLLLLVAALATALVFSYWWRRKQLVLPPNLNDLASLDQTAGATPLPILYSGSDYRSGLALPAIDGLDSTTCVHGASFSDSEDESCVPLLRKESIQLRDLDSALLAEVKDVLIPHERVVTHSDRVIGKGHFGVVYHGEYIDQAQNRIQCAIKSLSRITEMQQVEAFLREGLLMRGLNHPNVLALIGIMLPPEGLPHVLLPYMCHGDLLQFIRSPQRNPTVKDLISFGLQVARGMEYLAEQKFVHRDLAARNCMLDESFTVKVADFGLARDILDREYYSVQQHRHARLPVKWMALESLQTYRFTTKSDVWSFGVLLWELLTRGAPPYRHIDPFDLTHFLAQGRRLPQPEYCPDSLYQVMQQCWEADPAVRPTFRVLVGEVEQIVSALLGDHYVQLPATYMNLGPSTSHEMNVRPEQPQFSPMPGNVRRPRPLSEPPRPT

[3] = target: Vascular endothelial growth factor receptor 1 (Homo sapiens, UniProt P17948)
[4] = target: Vascular endothelial growth factor receptor 2 (Homo sapiens, UniProt P35968)
Chain of Vascular endothelial growth factor receptor 2 (P35968 whole entry): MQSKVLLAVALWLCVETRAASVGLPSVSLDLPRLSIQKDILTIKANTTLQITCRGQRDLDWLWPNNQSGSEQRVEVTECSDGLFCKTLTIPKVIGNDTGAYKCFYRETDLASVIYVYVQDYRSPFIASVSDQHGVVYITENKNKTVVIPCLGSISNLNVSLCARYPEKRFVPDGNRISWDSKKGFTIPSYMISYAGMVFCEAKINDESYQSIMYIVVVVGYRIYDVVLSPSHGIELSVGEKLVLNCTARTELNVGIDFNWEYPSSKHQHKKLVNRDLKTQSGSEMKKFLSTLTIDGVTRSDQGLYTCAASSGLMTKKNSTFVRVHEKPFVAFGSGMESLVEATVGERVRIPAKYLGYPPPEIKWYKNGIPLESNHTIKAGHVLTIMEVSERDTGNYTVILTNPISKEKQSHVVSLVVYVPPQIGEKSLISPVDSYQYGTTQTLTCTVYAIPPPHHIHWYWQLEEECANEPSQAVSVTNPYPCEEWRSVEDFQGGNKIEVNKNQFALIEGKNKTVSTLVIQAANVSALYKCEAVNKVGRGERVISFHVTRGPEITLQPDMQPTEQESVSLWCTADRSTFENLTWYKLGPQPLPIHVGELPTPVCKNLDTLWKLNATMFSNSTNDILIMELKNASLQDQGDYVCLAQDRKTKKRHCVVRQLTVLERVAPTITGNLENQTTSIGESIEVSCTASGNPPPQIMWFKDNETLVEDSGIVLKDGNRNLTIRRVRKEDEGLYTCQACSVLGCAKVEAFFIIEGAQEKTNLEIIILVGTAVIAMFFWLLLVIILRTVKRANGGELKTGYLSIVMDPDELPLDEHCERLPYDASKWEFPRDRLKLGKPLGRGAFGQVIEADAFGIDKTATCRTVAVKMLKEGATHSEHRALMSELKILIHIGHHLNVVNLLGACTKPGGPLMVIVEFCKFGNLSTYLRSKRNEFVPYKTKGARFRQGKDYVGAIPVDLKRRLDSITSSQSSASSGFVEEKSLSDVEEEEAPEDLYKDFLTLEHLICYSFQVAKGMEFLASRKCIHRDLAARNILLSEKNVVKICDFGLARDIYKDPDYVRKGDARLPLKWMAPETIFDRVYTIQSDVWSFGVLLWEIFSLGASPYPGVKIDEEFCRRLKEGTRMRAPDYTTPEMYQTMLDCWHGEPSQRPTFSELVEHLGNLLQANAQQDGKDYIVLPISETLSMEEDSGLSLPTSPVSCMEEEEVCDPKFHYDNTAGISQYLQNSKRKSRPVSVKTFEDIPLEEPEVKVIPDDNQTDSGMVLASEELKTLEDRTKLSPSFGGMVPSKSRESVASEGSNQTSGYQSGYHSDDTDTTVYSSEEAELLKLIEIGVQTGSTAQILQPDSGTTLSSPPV

[5] = target: T1, Platelet-derived growth factor receptor alpha [1-973] (Homo sapiens, UniProt P16234)
T1 construct: 1-973

[6] = target: T2, Receptor-type tyrosine-protein kinase FLT3 (Homo sapiens, UniProt P36888)
T2 sequence (P36888 whole entry): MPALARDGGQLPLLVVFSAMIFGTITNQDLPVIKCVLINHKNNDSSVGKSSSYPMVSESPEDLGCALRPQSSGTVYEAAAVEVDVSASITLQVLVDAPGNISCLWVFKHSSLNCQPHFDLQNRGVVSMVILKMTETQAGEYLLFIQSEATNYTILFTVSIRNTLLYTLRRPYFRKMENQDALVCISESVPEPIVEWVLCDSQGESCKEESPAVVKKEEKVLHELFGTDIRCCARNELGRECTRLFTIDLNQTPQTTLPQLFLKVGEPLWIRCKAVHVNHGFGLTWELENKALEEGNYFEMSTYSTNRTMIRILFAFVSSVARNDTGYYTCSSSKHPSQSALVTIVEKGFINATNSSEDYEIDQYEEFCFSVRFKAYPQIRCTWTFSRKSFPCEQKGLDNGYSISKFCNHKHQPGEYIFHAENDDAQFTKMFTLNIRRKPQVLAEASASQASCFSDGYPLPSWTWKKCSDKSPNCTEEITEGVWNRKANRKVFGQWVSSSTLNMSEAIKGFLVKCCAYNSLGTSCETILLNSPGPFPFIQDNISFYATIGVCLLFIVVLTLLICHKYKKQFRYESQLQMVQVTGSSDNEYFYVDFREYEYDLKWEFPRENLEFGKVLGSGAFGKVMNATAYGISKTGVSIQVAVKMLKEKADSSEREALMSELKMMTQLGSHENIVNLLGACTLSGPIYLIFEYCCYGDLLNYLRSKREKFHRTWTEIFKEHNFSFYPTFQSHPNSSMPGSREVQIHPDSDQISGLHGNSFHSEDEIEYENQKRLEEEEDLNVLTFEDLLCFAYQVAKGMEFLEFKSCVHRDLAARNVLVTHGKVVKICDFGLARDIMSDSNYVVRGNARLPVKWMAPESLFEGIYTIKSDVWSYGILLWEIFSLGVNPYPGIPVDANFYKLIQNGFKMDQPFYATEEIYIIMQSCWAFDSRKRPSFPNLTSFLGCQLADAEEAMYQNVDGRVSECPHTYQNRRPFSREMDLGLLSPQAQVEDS

[7] = target: T3, Epidermal growth factor receptor [1-973] (Homo sapiens, UniProt P00533)
T3 construct: 1-973

[8] = target: T4, Mast/stem cell growth factor receptor Kit [1-973] (Homo sapiens, UniProt P10721)
T4 construct: 1-973
T4 sequence (P10721 1-973): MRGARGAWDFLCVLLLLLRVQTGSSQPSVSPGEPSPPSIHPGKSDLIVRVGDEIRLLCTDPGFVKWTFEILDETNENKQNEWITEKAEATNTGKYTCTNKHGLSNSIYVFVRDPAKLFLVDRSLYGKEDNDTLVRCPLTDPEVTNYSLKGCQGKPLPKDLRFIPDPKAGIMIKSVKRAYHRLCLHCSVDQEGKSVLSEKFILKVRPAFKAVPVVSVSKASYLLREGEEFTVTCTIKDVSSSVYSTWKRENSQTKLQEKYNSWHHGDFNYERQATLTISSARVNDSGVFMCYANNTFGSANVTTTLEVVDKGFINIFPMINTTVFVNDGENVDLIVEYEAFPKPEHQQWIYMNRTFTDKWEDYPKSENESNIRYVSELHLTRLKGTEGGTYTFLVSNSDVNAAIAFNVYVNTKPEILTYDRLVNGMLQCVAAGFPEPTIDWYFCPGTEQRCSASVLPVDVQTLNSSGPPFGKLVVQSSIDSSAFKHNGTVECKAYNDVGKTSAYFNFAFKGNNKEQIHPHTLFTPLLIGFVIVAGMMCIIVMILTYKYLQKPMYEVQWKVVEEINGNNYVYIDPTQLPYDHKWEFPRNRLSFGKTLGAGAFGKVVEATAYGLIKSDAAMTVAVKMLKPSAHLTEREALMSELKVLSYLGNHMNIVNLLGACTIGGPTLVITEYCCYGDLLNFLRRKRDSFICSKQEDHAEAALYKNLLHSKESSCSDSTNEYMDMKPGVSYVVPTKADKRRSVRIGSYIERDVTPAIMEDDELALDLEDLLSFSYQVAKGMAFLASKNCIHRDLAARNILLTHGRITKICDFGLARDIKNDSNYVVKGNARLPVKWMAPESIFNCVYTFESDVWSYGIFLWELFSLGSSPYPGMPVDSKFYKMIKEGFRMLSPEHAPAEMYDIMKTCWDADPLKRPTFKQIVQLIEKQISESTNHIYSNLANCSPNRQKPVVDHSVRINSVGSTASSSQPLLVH

Chain of Hepatocyte growth factor receptor (P08581 whole entry): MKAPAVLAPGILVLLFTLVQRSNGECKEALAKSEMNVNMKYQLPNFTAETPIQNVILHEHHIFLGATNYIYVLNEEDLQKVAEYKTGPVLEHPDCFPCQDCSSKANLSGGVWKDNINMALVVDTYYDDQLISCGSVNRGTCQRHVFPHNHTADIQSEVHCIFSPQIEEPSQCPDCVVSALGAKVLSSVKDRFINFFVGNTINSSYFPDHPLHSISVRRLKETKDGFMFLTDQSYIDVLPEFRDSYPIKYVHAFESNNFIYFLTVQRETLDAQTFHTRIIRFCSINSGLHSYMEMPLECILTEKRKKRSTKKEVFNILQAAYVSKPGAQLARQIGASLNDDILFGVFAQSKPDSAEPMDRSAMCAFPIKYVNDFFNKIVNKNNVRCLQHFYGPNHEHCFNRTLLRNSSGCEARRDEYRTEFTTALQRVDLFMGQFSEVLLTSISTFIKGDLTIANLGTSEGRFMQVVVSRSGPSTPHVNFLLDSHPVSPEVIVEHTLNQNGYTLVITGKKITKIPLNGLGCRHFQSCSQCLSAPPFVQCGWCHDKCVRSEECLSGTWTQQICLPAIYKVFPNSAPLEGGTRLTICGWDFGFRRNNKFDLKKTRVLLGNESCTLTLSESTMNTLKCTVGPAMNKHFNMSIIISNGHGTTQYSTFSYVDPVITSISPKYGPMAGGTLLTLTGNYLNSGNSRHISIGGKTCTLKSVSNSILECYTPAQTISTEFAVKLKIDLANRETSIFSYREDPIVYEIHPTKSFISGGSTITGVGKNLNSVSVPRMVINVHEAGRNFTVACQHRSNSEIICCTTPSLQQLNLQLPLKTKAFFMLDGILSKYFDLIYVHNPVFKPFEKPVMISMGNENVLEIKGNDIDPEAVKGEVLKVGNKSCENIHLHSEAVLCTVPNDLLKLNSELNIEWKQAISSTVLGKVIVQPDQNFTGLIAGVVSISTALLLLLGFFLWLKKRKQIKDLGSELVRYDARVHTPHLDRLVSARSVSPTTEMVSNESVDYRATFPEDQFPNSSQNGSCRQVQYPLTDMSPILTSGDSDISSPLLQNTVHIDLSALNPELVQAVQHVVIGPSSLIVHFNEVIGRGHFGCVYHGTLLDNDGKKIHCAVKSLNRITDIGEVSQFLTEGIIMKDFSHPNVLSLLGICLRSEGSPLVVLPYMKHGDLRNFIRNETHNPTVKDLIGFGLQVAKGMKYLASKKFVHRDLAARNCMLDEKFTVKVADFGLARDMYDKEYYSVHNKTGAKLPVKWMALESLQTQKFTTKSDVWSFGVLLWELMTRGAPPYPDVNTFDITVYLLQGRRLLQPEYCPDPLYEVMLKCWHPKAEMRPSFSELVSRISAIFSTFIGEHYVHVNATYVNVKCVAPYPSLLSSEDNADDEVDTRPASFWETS

IC50 [1]: 2.75 nM
SMILES: COc1cc2c(Oc3ccc(N=Cc4c(O)n(-c5ccccc5C(F)(F)F)c(=O)n4C)cc3F)ccnc2cc1OCCCN1CCCC1 [(E)-5-(((3-fluoro-4-((6-methoxy-7-(3-(pyrrolidin-1-yl)propoxy)quinolin-4-yl)oxy)phenyl)amino)methylene)-1-methyl-3-(2-(trifluoromethyl)phenyl)imidazolidine-2,4-dione (38)]

IC50 [1]: 8.78 nM
SMILES: COc1cc2c(Oc3ccc(N=Cc4c(O)n(-c5ccccc5F)c(=O)n4C)cc3F)ccnc2cc1OCCCN1CCOCC1 [(E)-5-(((3-fluoro-4-((6-methoxy-7-(3-morpholinopropoxy)quinolin-4-yl)oxy)phenyl)amino)methylene)-3-(2-fluorophenyl)-1-methylimidazolidine-2,4-dione (40)]

IC50 [1]: 6.63 nM
SMILES: COc1cc2c(Oc3ccc(N=Cc4c(C)[nH]n(-c5ccccc5C(F)(F)F)c4=O)cc3F)ccnc2cc1OCCCN1CCCCC1 [(Z)-4-(((3-fluoro-4-((6-methoxy-7-(3-(piperidin-1-yl)propoxy)quinolin-4-yl)oxy)phenyl)amino)methylene)-3-methyl-1-(2-(trifluoromethyl)phenyl)-1H-pyrazol-5(4H)-one (21)]

IC50 [1]: 5.04 nM
SMILES: COc1cc2c(Oc3ccc(N=Cc4c(C)[nH]n(-c5ccccc5C(F)(F)F)c4=O)cc3F)ccnc2cc1OCCCN1CCCC1 [(Z)-4-(((3-fluoro-4-((6-methoxy-7-(3-(pyrrolidin-1-yl)propoxy)quinolin-4-yl)oxy)phenyl)amino)methylene)-3-methyl-1-(2-(trifluoromethyl)phenyl)-1H-pyrazol-5(4H)-one (13)]

IC50 [1]: 2.2 nM | IC50 [2]: 4.24 nM | IC50 [3]: 8.56 nM | IC50 [4]: 326 nM | IC50 [5]: 32.2 nM | IC50 [6]: 8.38 nM | IC50 [7]: > 10000 nM | IC50 [8]: 2.3 nM
SMILES: COc1cc2c(Oc3ccc(N=Cc4c(C)[nH]n(-c5ccccc5C(F)(F)F)c4=O)cc3F)ccnc2cc1OCCCN1CCOCC1 [(Z)-4-(((3-fluoro-4-((6-methoxy-7-(3-morpholinopropoxy)quinolin-4-yl)oxy)phenyl)amino)methylene)-3-methyl-1-(2-(trifluoromethyl)phenyl)-1H-pyrazol-5(4H)-one (17)]
